Values of other authors as cited in US20250114373A1, “[…] INSERT COMPRISING AN ANTIMICROBIAL AGENT” (OCULAR THERAPEUTIX, INC., priority 2022, published 2025).

How the values were obtained:
Settings in all cases: values from Proksch, 2009
[1] = tested on: S. aureus
[2] = tested on: S. pneumoniae
[3] = tested on: S. epidermidis
[4] = tested on: H. influenzae

N[C@@H]1CCCCN(c2c(F)cc3c(=O)c(C(=O)O)cn(C4CC4)c3c2Cl)C1 [Besifloxacin, (R)-7-(3-aminohexahydro-1H-azepin-1-yl)-8-chloro-1-cyclopropyl-6-fluoro-1,4-dihydro-4-oxo-3-quinolinecarboxylic acid]
MIC90 [1]: (MIC90 of 0.25 μg/mL | MIC90 [2]: (MIC90 of 0.125 μg/mL | MIC90 [3]: (MIC90 of 0.5 μg/mL | MIC90 [4]: (MIC90 of 0.06 μg/mL
